Legend:
FL PSD-95 (I195W) = target: T1, FL PSD-95 (I195W) (Homo sapiens, UniProt P78352, I195W); experiment: Stopped-flow spectrometry binding kinetics, FL PSD-95 I195W; details: 50 mM potassium phosphate pH 7.5, 10°C
T1 construct: PSD-95 FL: 61-end; made in house; host or cells: E. coli (pET32m3C vector; QuickChange mutagenesis)
Method: (§1) Kinetic experiments using stopped-flow were carried out under the conditions used previously,[37, 38] namely in 50 mM potassium phosphate, pH 7.5 at 10°C. The change in fluorescence upon binding was monitored with a 330 nm band-pass filter following excitation at 280 nm. […] Regarding the fluorophores and the observed changes in fluorescence, several events contribute to the observed signal. […] This could be either through FRET or by absorbing excitation light. Both fluorophores are also themselves excited at 280 nm (less) and 330 nm (more) and their intrinsic fluorescence may change on binding to the proteins.
(§2) This observed rate constant might be the average of the two k obs values observed upon excitation at 280 nm/emission at 330 nm.

PSD-95 PDZ1-2 = PSD-95 PDZ1-2 (Homo sapiens, UniProt P78352); details: FP
Method: (§3) The monomeric FP assay was conducted as previously described except that the proteins were diluted in 50 mM TRIS, 100 mM NaCl, 1 mM ethylenediaminetetraacetate (EDTA), 1 mM DTT.[34] The monomeric probe was only used when monomeric binding to PSD95 PDZ1-2 and PSD95 PDZ1-2-3 was evaluated, whereas 18 was used as probe for evaluating the binding of the dimeric and trimeric ligands. […] In all of the experiments a blank (buffer) and a reference sample (0.5 nM probe in buffer) were used. A total of 30 μl was pipetted into the wells of a 384 flat black bottom well plate. The FP was measured on a Tecan Safire 2 microplate reader (Tecan Group LTD., Männedorf, Germany). The absorption/emission wavelengths were set to 635/670 nm, corresponding to the Cy5 spectra. The obtained IC50 values were converted to K i values using the equations described by Nikolovska-Coleska et al.[35] […] Consequently, the Ki-value will become negative when the difference between the IC50-value and the Kd is too great.[35, 36]

FL PSD-95 wild-type = target: T2, FL PSD-95 wild-type (Homo sapiens, UniProt P78352); experiment: Stopped-flow spectrometry binding kinetics, FL PSD-95 wild-type; details: 50 mM potassium phosphate pH 7.5, 10°C
T2 construct: PSD-95 FL: 61-end; made in house; host or cells: E. coli (pET32m3C vector; construct donated by M. Zhang)
Method: as §1, §2

FL PSD-95 (I100W) = target: T3, FL PSD-95 (I100W) (Homo sapiens, UniProt P78352, I100W); experiment: Stopped-flow spectrometry binding kinetics, FL PSD-95 I100W; details: 50 mM potassium phosphate pH 7.5, 10°C
T3 construct: PSD-95 FL: 61-end; made in house; host or cells: E. coli (pET32m3C vector; QuickChange mutagenesis)
Method: as §1, §2

PSD-95 PDZ1-2-3 = target: T4, PSD-95 PDZ1-2-3 (Homo sapiens, UniProt P78352); experiment: Fluorescence polarization (FP) binding assay, PSD-95 PDZ1-2-3
T4 construct: 7xHis; made in house; host or cells: E. coli BL21(DE3)pLysS
Method: as §3

single PDZ3 domain = tested on: single PDZ3 domain; parameters: method as in PMID 21653701; details: observed previously; cited from earlier work

YKQTSV [Compound 1]
kon app, PSD-95 FL I195W (FL PSD-95 (I195W)): 6.3e+06 ± 130000 M⁻¹ s⁻¹
fold lower affinity compared to trimeric ligand 17, PDZ1-2 (PSD-95 PDZ1-2): > 1000 fold
kon app, PSD-95 wild-type (FL PSD-95 wild-type): 6e+06 ± 100000 M⁻¹ s⁻¹
kon app, PSD-95 FL I100W (FL PSD-95 (I100W)): 6.3e+06 ± 190000 M⁻¹ s⁻¹
fold lower affinity compared to trimeric ligand 17, PDZ1-2-3 (PSD-95 PDZ1-2-3): > 1000 fold

dansyl-1: N-terminally dansylated CRIPT hexapeptide YKQTSV
observed rate constant dansyl-1/PDZ3 (single PDZ3 domain): 1.6 s⁻¹
